Source: patent US20240325398A1, “COMBINATION THERAPIES” (Infinity Pharmaceuticals, Inc., priority 2014, published 2024)

Tests used:
[1] = tested on: SUDHL6; test: Compound 1 with dexamethasone, CellTiter-Glo viability 72 h, combination index; type: cell-based; conditions: SUDHL6
Procedure: The effects of Compound 1 with dexamethasone were examined in a panel of cell lines. Cells were cultured and assayed as follows. Compound 1 was serially diluted with cell culture medium and various DMSO concentrations. The top concentration of Compound 1 exposed to cells was 3 uM for cell lines other than WSU-NHL and DOHH2. For WSU-NHL and DOHH2 cell lines, the top concentration of Compound 1 exposed to the cells was 0.3 uM. Dexamethasone was serially diluted in culture media and phosphate buffered saline (PBS). The top concentration of dexamethasone used on cells was 3 uM. Cells were at least 73% viable and were counted and diluted for plating at a density of about 92,000 cell/mL, 130 uL cells per well in 96 well plates for SUDHL6, Karpas 422, SUDHL4, WSU-NHL, RL, and DOHH2 cell lines. The SUDHL10 cell line was plated at a density of about 46,000 cells/mL, 130 uL cells per well in 96 well plates.
Various concentrations of Compound 1 and various combinations of dexamethasone were added to various wells of cells. Single agents (Compound 1 or dexamethasone alone) were also added to some wells of cells. Cells were incubated with compounds for 72 hours. To assay for effects of the compounds on cell viability, a CellTiter-Glo® luminescent cell viability assay (commercially available) was used. To each plate of cells, 100 uL CellTiter-Glo reagent was added, incubated, and luminescence quantified using a […].
The result for cell line SUDHL6 is depicted in FIG. 12 and in Table 12. […] Table 12 depicts combination index (CI) values for different combinations of dexamethasone/Compound 1 concentrations.

[2] = tested on: OCI-Ly7; test: Combination study, ATPLite 72 h, dose matrix (Synergy Score, CI50)
Procedure: Cells are thawed from a liquid nitrogen preserved state. Once cells have been expanded and divide at their expected doubling times, screening begins. Cells are seeded in growth media in either black 1536-well or 384-well tissue culture treated plates. Cells are then equilibrated in assay plates via centrifugation and placed in incubators attached to the Dosing Modules at 37° C. for 24 hours before treatment. […] These Tzero (To) plates are read using ultra-sensitive luminescence on Envision plate readers (Perkin Elmer). Treated assay plates are incubated with compound for 72 hours. After 72 hours, plates are developed for endpoint analysis using ATPLite. All data points are collected via automated processes, quality controlled and analyzed using Zalicus software.
The measure of effect in the experiment can be the inhibition of cellular response relative to the untreated level (vehicle alone). […] The inhibition ranges from 0% at the untreated level to 100% when T=0. Inhibition levels are negative for agents that actually increase levels.
Growth Inhibition (GI) is used as a measure of cell viability. […] A GI reading of 100% represents complete growth inhibition—T72 compound-treated and T0 vehicle signals are matched. […] A GI reading of 200% represents complete death of all cells in the culture well. Compounds reaching an activity plateau of GI 200% are considered cytotoxic. GI is calculated by applying the following test and equation:
Combination analysis data were collected in a 6×6 dose matrix. Synergy is calculated by comparing a combination's response to those of its single compound, against the drug-with-itself dose-additive reference model. Deviations from dose additivity may be assessed visually on an isobologram or numerically with a Combination Index (CI). […] Additive effect is CI=1.0. […] Antagonistic effect is CI>1.0.
To measure combination effects in excess of Loewe additivity, a scalar measure to characterize the strength of synergistic interaction termed the Synergy Score is devised. The Synergy Score is calculated as:
The fractional inhibition for each component agent and combination point in the matrix is calculated relative to the median of all vehicle-treated control wells. The Synergy Score equation integrates the experimentally-observed activity volume at each point in the matrix in excess of a model surface numerically derived from the activity of the component agents using the Loewe model for additivity. Additional terms in the Synergy Score equation (above) are used to normalize for various dilution factors used for individual agents and to allow for comparison of synergy scores across an entire experiment. The inclusion of positive inhibition gating or an Idata multiplier removes noise near the zero effect level, and biases results for synergistic interactions at that occur at high activity levels.
Loewe Volume (Loewe Vol) is used to assess the overall magnitude of the combination interaction in excess of the Loewe additivity model. Loewe Volume is particularly useful when distinguishing synergistic increases in a phenotypic activity (positive Loewe Volume) versus synergistic antagonisms (negative Loewe Volume). […] This model defines additivity as a non-synergistic combination interaction where the combination dose matrix surface should be indistinguishable from either drug crossed with itself. The calculation for Loewe additivity is:

[3] = tested on: DOHH-2; test: as above

C[C@H](Nc1ncnc2[nH]cnc12)c1cc2cccc(Cl)c2c(=O)n1-c1ccccc1 [Compound 1, (S)-3-(1-((9H-purin-6-yl)amino)ethyl)-8-chloro-2-phenylisoquinolin-1(2H)-one]
combination index (CI) ([1]; Compound 1 1.4 nM + Dexamethasone 1.4 nM): E (E = >1) | combination index (CI) ([1]; Compound 1 1.4 nM + Dexamethasone 4.1 nM): E (E = >1) | combination index (CI) ([1]; Compound 1 1.4 nM + Dexamethasone 12.3 nM): E (E = >1) | combination index (CI) ([1]; Compound 1 1.4 nM + Dexamethasone 37 nM): E (E = >1) | combination index (CI) ([1]; Compound 1 1.4 nM + Dexamethasone 111.1 nM): A (A = 0.0001 to <0.3) | combination index (CI) ([1]; Compound 1 1.4 nM + Dexamethasone 333.3 nM): A (A = 0.0001 to <0.3) | combination index (CI) ([1]; Compound 1 1.4 nM + Dexamethasone 1000 nM): A (A = 0.0001 to <0.3) | combination index (CI) ([1]; Compound 1 1.4 nM + Dexamethasone 3000 nM): A (A = 0.0001 to <0.3) | combination index (CI) ([1]; Compound 1 4.1 nM + Dexamethasone 1.4 nM): E (E = >1) | combination index (CI) ([1]; Compound 1 4.1 nM + Dexamethasone 4.1 nM): B (B = 0.3 to <0.5) | combination index (CI) ([1]; Compound 1 4.1 nM + Dexamethasone 12.3 nM): E (E = >1) | combination index (CI) ([1]; Compound 1 4.1 nM + Dexamethasone 37 nM): C (C = 0.5 to <0.7) | combination index (CI) ([1]; Compound 1 4.1 nM + Dexamethasone 111.1 nM): A (A = 0.0001 to <0.3) | combination index (CI) ([1]; Compound 1 4.1 nM + Dexamethasone 333.3 nM): A (A = 0.0001 to <0.3) | combination index (CI) ([1]; Compound 1 4.1 nM + Dexamethasone 1000 nM): A (A = 0.0001 to <0.3) | combination index (CI) ([1]; Compound 1 4.1 nM + Dexamethasone 3000 nM): A (A = 0.0001 to <0.3) | combination index (CI) ([1]; Compound 1 12.3 nM + Dexamethasone 1.4 nM): E (E = >1) | combination index (CI) ([1]; Compound 1 12.3 nM + Dexamethasone 4.1 nM): E (E = >1) | combination index (CI) ([1]; Compound 1 12.3 nM + Dexamethasone 12.3 nM): E (E = >1) | combination index (CI) ([1]; Compound 1 12.3 nM + Dexamethasone 37 nM): E (E = >1) | combination index (CI) ([1]; Compound 1 12.3 nM + Dexamethasone 111.1 nM): A (A = 0.0001 to <0.3) | combination index (CI) ([1]; Compound 1 12.3 nM + Dexamethasone 333.3 nM): A (A = 0.0001 to <0.3) | combination index (CI) ([1]; Compound 1 12.3 nM + Dexamethasone 1000 nM): A (A = 0.0001 to <0.3) | combination index (CI) ([1]; Compound 1 12.3 nM + Dexamethasone 3000 nM): A (A = 0.0001 to <0.3) | combination index (CI) ([1]; Compound 1 37 nM + Dexamethasone 1.4 nM): E (E = >1) | combination index (CI) ([1]; Compound 1 37 nM + Dexamethasone 4.1 nM): E (E = >1) | combination index (CI) ([1]; Compound 1 37 nM + Dexamethasone 12.3 nM): E (E = >1) | combination index (CI) ([1]; Compound 1 37 nM + Dexamethasone 37 nM): E (E = >1) | combination index (CI) ([1]; Compound 1 37 nM + Dexamethasone 111.1 nM): A (A = 0.0001 to <0.3) | combination index (CI) ([1]; Compound 1 37 nM + Dexamethasone 333.3 nM): A (A = 0.0001 to <0.3) | combination index (CI) ([1]; Compound 1 37 nM + Dexamethasone 1000 nM): A (A = 0.0001 to <0.3) | combination index (CI) ([1]; Compound 1 37 nM + Dexamethasone 3000 nM): A (A = 0.0001 to <0.3) | combination index (CI) ([1]; Compound 1 111.1 nM + Dexamethasone 1.4 nM): E (E = >1) | combination index (CI) ([1]; Compound 1 111.1 nM + Dexamethasone 4.1 nM): E (E = >1) | combination index (CI) ([1]; Compound 1 111.1 nM + Dexamethasone 12.3 nM): E (E = >1) | combination index (CI) ([1]; Compound 1 111.1 nM + Dexamethasone 37 nM): E (E = >1) | combination index (CI) ([1]; Compound 1 111.1 nM + Dexamethasone 111.1 nM): A (A = 0.0001 to <0.3) | combination index (CI) ([1]; Compound 1 111.1 nM + Dexamethasone 333.3 nM): A (A = 0.0001 to <0.3) | combination index (CI) ([1]; Compound 1 111.1 nM + Dexamethasone 1000 nM): A (A = 0.0001 to <0.3) | combination index (CI) ([1]; Compound 1 111.1 nM + Dexamethasone 3000 nM): A (A = 0.0001 to <0.3) | combination index (CI) ([1]; Compound 1 333.3 nM + Dexamethasone 1.4 nM): E (E = >1) | combination index (CI) ([1]; Compound 1 333.3 nM + Dexamethasone 4.1 nM): E (E = >1) | combination index (CI) ([1]; Compound 1 333.3 nM + Dexamethasone 12.3 nM): E (E = >1) | combination index (CI) ([1]; Compound 1 333.3 nM + Dexamethasone 37 nM): E (E = >1) | combination index (CI) ([1]; Compound 1 333.3 nM + Dexamethasone 111.1 nM): A (A = 0.0001 to <0.3) | combination index (CI) ([1]; Compound 1 333.3 nM + Dexamethasone 333.3 nM): A (A = 0.0001 to <0.3) | combination index (CI) ([1]; Compound 1 333.3 nM + Dexamethasone 1000 nM): A (A = 0.0001 to <0.3) | combination index (CI) ([1]; Compound 1 333.3 nM + Dexamethasone 3000 nM): A (A = 0.0001 to <0.3) | combination index (CI) ([1]; Compound 1 1000 nM + Dexamethasone 1.4 nM): E (E = >1) | combination index (CI) ([1]; Compound 1 1000 nM + Dexamethasone 4.1 nM): B (B = 0.3 to <0.5) | combination index (CI) ([1]; Compound 1 1000 nM + Dexamethasone 12.3 nM): E (E = >1) | combination index (CI) ([1]; Compound 1 1000 nM + Dexamethasone 37 nM): E (E = >1) | combination index (CI) ([1]; Compound 1 1000 nM + Dexamethasone 111.1 nM): A (A = 0.0001 to <0.3) | combination index (CI) ([1]; Compound 1 1000 nM + Dexamethasone 333.3 nM): A (A = 0.0001 to <0.3) | combination index (CI) ([1]; Compound 1 1000 nM + Dexamethasone 1000 nM): A (A = 0.0001 to <0.3) | combination index (CI) ([1]; Compound 1 1000 nM + Dexamethasone 3000 nM): A (A = 0.0001 to <0.3) | combination index (CI) ([1]; Compound 1 3000 nM + Dexamethasone 1.4 nM): A (A = 0.0001 to <0.3) | combination index (CI) ([1]; Compound 1 3000 nM + Dexamethasone 4.1 nM): A (A = 0.0001 to <0.3) | combination index (CI) ([1]; Compound 1 3000 nM + Dexamethasone 12.3 nM): A (A = 0.0001 to <0.3) | combination index (CI) ([1]; Compound 1 3000 nM + Dexamethasone 37 nM): A (A = 0.0001 to <0.3) | combination index (CI) ([1]; Compound 1 3000 nM + Dexamethasone 111.1 nM): A (A = 0.0001 to <0.3) | combination index (CI) ([1]; Compound 1 3000 nM + Dexamethasone 333.3 nM): A (A = 0.0001 to <0.3) | combination index (CI) ([1]; Compound 1 3000 nM + Dexamethasone 1000 nM): A (A = 0.0001 to <0.3) | combination index (CI) ([1]; Compound 1 3000 nM + Dexamethasone 3000 nM): A (A = 0.0001 to <0.3) | CI50 growth inhibition ([2]; combination with Dexamethasone): S (S=0.01 to <0.5) | CI50 inhibition ([2]; combination with Dexamethasone): S (S=0.01 to <0.5) | Synergy Score growth inhibition ([2]; combination with Dexamethasone): A3 (A3=>3) | Synergy Score inhibition ([2]; combination with Dexamethasone): A2 (A2=1 to <3) | CI50 growth inhibition ([2]; combination with LEE011): U (U=0.7 to <1) | CI50 inhibition ([2]; combination with LEE011): W (W=≥1) | Synergy Score growth inhibition ([2]; combination with LEE011): A2 (A2=1 to <3) | Synergy Score inhibition ([2]; combination with LEE011): A1 (A1=0.0001 to <1) | CI50 growth inhibition ([2]; combination with PCI-32765): W (W=≥1) | Synergy Score growth inhibition ([2]; combination with PCI-32765): A2 (A2=1 to <3) | Synergy Score inhibition ([2]; combination with PCI-32765): A1 (A1=0.0001 to <1) | CI50 growth inhibition ([2]; combination with PD-0332991): T (T=0.5 to <0.7) | CI50 inhibition ([2]; combination with PD-0332991): S (S=0.01 to <0.5) | Synergy Score growth inhibition ([2]; combination with PD-0332991): A2 (A2=1 to <3) | Synergy Score inhibition ([2]; combination with PD-0332991): A2 (A2=1 to <3) | CI50 growth inhibition ([3]; combination with Dexamethasone): S (S=0.01 to <0.5) | CI50 inhibition ([3]; combination with Dexamethasone): S (S=0.01 to <0.5) | Synergy Score growth inhibition ([3]; combination with Dexamethasone): A3 (A3=>3) | Synergy Score inhibition ([3]; combination with Dexamethasone): A3 (A3=>3) | CI50 growth inhibition ([3]; combination with LEE011): T (T=0.5 to <0.7) | CI50 inhibition ([3]; combination with LEE011): U (U=0.7 to <1) | Synergy Score growth inhibition ([3]; combination with LEE011): A3 (A3=>3) | Synergy Score inhibition ([3]; combination with LEE011): A2 (A2=1 to <3) | CI50 growth inhibition ([3]; combination with PCI-32765): S (S=0.01 to <0.5) | CI50 inhibition ([3]; combination with PCI-32765): S (S=0.01 to <0.5) | Synergy Score growth inhibition ([3]; combination with PCI-32765): A3 (A3=>3) | Synergy Score inhibition ([3]; combination with PCI-32765): A3 (A3=>3) | CI50 growth inhibition ([3]; combination with PD-0332991): U (U=0.7 to <1) | CI50 inhibition ([3]; combination with PD-0332991): U (U=0.7 to <1) | Synergy Score growth inhibition ([3]; combination with PD-0332991): A3 (A3=>3) | Synergy Score inhibition ([3]; combination with PD-0332991): A2 (A2=1 to <3)
